Reference: ChEMBL document CHEMBL1201862, “PubChem BioAssay data set” (2004)
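Dose response: 5 concentrations. Exposure: 48 h. Format: 96-well plates. Endpoint: linear interpolation; highest concentration if not reached. At the GI50, growth is halved.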 Calls of active or inactive are those of the source. Rule as the data show it: active = GI50 up to about 1.1 µM and inactive = higher.

What was measured:
Assay in all cases: inhibition of tumour cell growth, NCI panel, 48 h
U-251 = test system: U-251
NCI-H226 = test system: NCI-H226
HT-29 = test system: HT-29
RPMI-8226 = test system: RPMI-8226
TK-10 = test system: TK-10
Malme-3M = test system: Malme-3M
IGROV-1 = test system: IGROV-1
NCI/ADR-RES = test system: NCI/ADR-RES
SK-MEL-5 = test system: SK-MEL-5
OVCAR-3 = test system: OVCAR-3
COLO 205 = test system: COLO 205
EKVX = test system: EKVX
SR = test system: SR
SNB-75 = test system: SNB-75
SF-268 = test system: SF-268
T47D = test system: T47D
SF-295 = test system: SF-295
MOLT-4 = test system: MOLT-4
NCI-H23 = test system: NCI-H23
ACHN = test system: ACHN

Measured: GI50

COc1ccccc1NC(=S)Nc1cc(C)ccn1
inactive: U-251 > 100 µM | NCI-H226 > 100 µM | HT-29 > 100 µM | RPMI-8226 > 100 µM | TK-10 > 100 µM | Malme-3M > 100 µM | IGROV-1 74 µM | NCI/ADR-RES > 100 µM | SK-MEL-5 > 100 µM | OVCAR-3 > 100 µM | COLO 205 > 100 µM | EKVX > 100 µM | SR > 100 µM | SNB-75 > 100 µM | SF-268 91 µM | T47D > 100 µM | SF-295 > 100 µM | MOLT-4 > 100 µM

COc1ccc(COCCOCc2nc(C#N)c(N)o2)cc1
inactive: U-251 > 100 µM | NCI-H226 > 100 µM | NCI-H23 > 100 µM | HT-29 > 100 µM | RPMI-8226 > 100 µM | TK-10 > 100 µM | IGROV-1 > 100 µM | NCI/ADR-RES > 100 µM | ACHN > 100 µM | SK-MEL-5 > 100 µM | OVCAR-3 > 100 µM | COLO 205 > 100 µM | EKVX > 100 µM | SR > 100 µM | SNB-75 > 100 µM | SF-268 > 100 µM | T47D > 100 µM | SF-295 > 100 µM | MOLT-4 > 100 µM

CCNC(=S)N/N=C/c1cc(OC)ccc1O
inactive: U-251 61.4 µM | NCI-H226 > 100 µM | NCI-H23 > 100 µM | HT-29 > 100 µM | TK-10 > 100 µM | Malme-3M > 100 µM | IGROV-1 82.4 µM | NCI/ADR-RES 83.6 µM | ACHN 66.7 µM | SK-MEL-5 > 100 µM | OVCAR-3 6.38 µM | COLO 205 > 100 µM | EKVX 89.1 µM | SR 69.5 µM | SNB-75 > 100 µM | SF-268 8.43 µM | T47D 24.3 µM | SF-295 70.3 µM | MOLT-4 67.1 µM

Nc1ncc2ncn(C3CCC(CO)O3)c2n1 (stereo not given)
inactive: U-251 > 100 µM | NCI-H226 > 100 µM | NCI-H23 > 100 µM | HT-29 > 100 µM | RPMI-8226 > 100 µM | TK-10 > 100 µM | IGROV-1 > 100 µM | NCI/ADR-RES > 100 µM | ACHN > 100 µM | SK-MEL-5 > 100 µM | OVCAR-3 > 100 µM | COLO 205 > 100 µM | EKVX > 100 µM | SR > 100 µM | SNB-75 > 100 µM | SF-268 > 100 µM | T47D > 100 µM | SF-295 > 100 µM | MOLT-4 > 100 µM

COC(CO[Si](C)(C)N[Si](C)(C)OCC(OC)c1ccccc1)c1ccccc1 (stereo not given)
inactive: U-251 > 100 µM | NCI-H226 > 100 µM | NCI-H23 > 100 µM | RPMI-8226 > 100 µM | TK-10 > 100 µM | IGROV-1 > 100 µM | NCI/ADR-RES > 100 µM | ACHN > 100 µM | SK-MEL-5 > 100 µM | OVCAR-3 > 100 µM | COLO 205 > 100 µM | EKVX > 100 µM | SR > 100 µM | SNB-75 > 100 µM | T47D > 100 µM | SF-295 > 100 µM | MOLT-4 > 100 µM

CC(C)c1cc(Cl)nc(Cl)n1
inactive: U-251 > 100 µM | NCI-H226 > 100 µM | NCI-H23 > 100 µM | HT-29 > 100 µM | RPMI-8226 > 100 µM | TK-10 > 100 µM | IGROV-1 > 100 µM | NCI/ADR-RES > 100 µM | ACHN > 100 µM | SK-MEL-5 > 100 µM | OVCAR-3 > 100 µM | COLO 205 > 100 µM | EKVX > 100 µM | SR > 100 µM | SNB-75 > 100 µM | SF-268 > 100 µM | T47D > 100 µM | SF-295 > 100 µM | MOLT-4 > 100 µM

O=c1oc2nc(-c3ccccc3)cc(C(F)(F)F)c2n1Cc1ccccc1
active: SR 0.454 µM
inactive: U-251 4.8 µM | NCI-H226 > 100 µM | NCI-H23 6.14 µM | HT-29 3.8 µM | RPMI-8226 4.41 µM | TK-10 46.6 µM | Malme-3M 1.89 µM | IGROV-1 13.4 µM | NCI/ADR-RES 3.42 µM | ACHN 11.7 µM | SK-MEL-5 5.42 µM | OVCAR-3 4.06 µM | COLO 205 7.82 µM | EKVX 7.03 µM | SF-268 > 25 µM | T47D 3.24 µM | SF-295 5.12 µM | MOLT-4 4.21 µM

Cc1cccc2c(=O)c3cccc(CC(=O)O)c3oc12
inactive: U-251 > 100 µM | NCI-H226 > 100 µM | NCI-H23 > 100 µM | HT-29 > 100 µM | RPMI-8226 > 100 µM | TK-10 > 100 µM | Malme-3M > 100 µM | IGROV-1 > 100 µM | NCI/ADR-RES > 100 µM | ACHN > 100 µM | SK-MEL-5 > 100 µM | OVCAR-3 > 100 µM | COLO 205 > 100 µM | EKVX > 100 µM | SR > 100 µM | SF-268 > 100 µM | T47D > 100 µM | SF-295 > 100 µM | MOLT-4 > 100 µM

Nc1ccc(Nc2cc(O)nc(O)n2)cc1
inactive: U-251 > 100 µM | NCI-H226 > 100 µM | NCI-H23 > 100 µM | HT-29 > 100 µM | RPMI-8226 > 100 µM | TK-10 > 100 µM | Malme-3M > 100 µM | IGROV-1 > 100 µM | NCI/ADR-RES > 100 µM | ACHN > 100 µM | SK-MEL-5 > 100 µM | OVCAR-3 > 100 µM | EKVX > 100 µM | SR > 100 µM | SF-268 > 100 µM | T47D 39.3 µM | SF-295 > 100 µM | MOLT-4 > 100 µM

O=C(/C=C/c1ccc(O)c(O)c1)Oc1ccccc1
active: SR 0.434 µM | MOLT-4 0.268 µM
inactive: U-251 12.6 µM | NCI-H226 35.1 µM | NCI-H23 14.4 µM | HT-29 11.3 µM | RPMI-8226 3.17 µM | TK-10 28.1 µM | IGROV-1 4.19 µM | NCI/ADR-RES 11.2 µM | ACHN 8.45 µM | SK-MEL-5 9.95 µM | OVCAR-3 6.98 µM | COLO 205 9.57 µM | EKVX 18.6 µM | SNB-75 13.1 µM | SF-268 7.59 µM | T47D 9.71 µM | SF-295 19.5 µM

O=c1c(O)c(-c2cc(O)c(O)c(O)c2)oc2cc(O)cc(O)c12 [MYRICETIN]
inactive: U-251 18.7 µM | NCI-H226 25.6 µM | NCI-H23 18.4 µM | HT-29 20.3 µM | RPMI-8226 36.1 µM | TK-10 > 100 µM | Malme-3M > 100 µM | IGROV-1 33.9 µM | NCI/ADR-RES 22.4 µM | ACHN 79.8 µM | SK-MEL-5 31.5 µM | OVCAR-3 30.6 µM | COLO 205 65.9 µM | SR 40.7 µM | SNB-75 64.4 µM | SF-268 44.2 µM | T47D > 100 µM | SF-295 20.3 µM | MOLT-4 54.6 µM
